No end group written: not given here.
Tests used:
[1] = test system: nerve cell-keratinocyte-melanocyte (N/K/M) multicellular model (melanogenesis); test: Melanin amount in nerve cell-keratinocyte-melanocyte (N/K/M) multicellular model under noradrenergic stress; format: cell-based, human; conditions: for amount of melanin, +noradrenalin: 10^−5 M noradrenalin alone (Control) or with CGRP8-37 10^−6 M or Calmiskin 0.03%; for melanin synthesis by melanocytes (in words): multicellular model
Protocol: The experimental data were analyzed by means of the PRISM® software (graph pad software). The intergroup comparisons were carried out by analysis of variance (ANOVA) using Dunnett's multiple comparison test. The comparisons between two samples were carried out by analysis using the T test. They represent the mean of 4 independent experiments. They are expressed in μg of melanin/ml.

[2] = test system: nerve cells of the N/K/M multicellular model; test: Growth of nerve endings through the porous insert (anti-β-tubulin epifluorescence); format: cell-based; conditions: 10^−5 M noradrenalin, 10 days
Protocol: Using a multicellular model as obtained in Example 1, the cells were cultured in the absence or presence of 10^−5 M noradrenalin, for 10 days.
The N/K/M culture medium was deposited into the culture wells and into the inserts.
The various media were renewed 50/50 every day.
The nerve cells were labelled with an anti-β-tubulin monoclonal antibody (Sigma T8660) and then visualized with goat anti-mouse immunoglobulin antibody-Alexa fluor 488 conjugate (Interchim A-11029).
After thorough washing in PBS, the preparations were observed by epifluorescence (Nikon Diaphot 300 microscope) and photographed.
The photographs were taken below the insert (on the keratinocyte-neuron site).

[3] = test system: CGRP release by nerve cells; test: Measurement of CGRP release in culture supernatants of the N/K/M model (ELISA); format: cell-based, rat
Protocol: At the end of the experiment described in Example 3, the supernatants from the wells and from the inserts were collected separately and immediately frozen at −80° C. in order to analyze the CGRP content. The CGRP content was measured in the culture supernatants by means of an ELISA assay (Rat CGRP enzyme Immuno Assay Kit, Spi Bio A05482) according to the protocol recommended by the supplier. The results are expressed in μg of CGRP/ml of medium. The analysis of the results was carried out as described above.

[4] = 10 days, mean of 4 independent experiments

Row | Compound | change in amount of melanin synthesized in the cocultures ([1]; 10^−5 M noradrenalin versus control without noradrenalin, 10 days) | amount of melanin, +noradrenalin [1, 4] | melanin synthesis by melanocytes (in words) [1] | density of the cell extensions (nerve endings crossing the insert) [2] | CGRP release in the insert (in words) ([3]; insert supernatant, 10^−5 M noradrenalin, with or without 0.03% Calmiskin) | CGRP content, insert ([3]; supernatant of inserts (nerve cells), 10 days, 10^−5 M noradrenalin alone or with 0.03% Calmiskin) | CGRP content, culture well ([3]; supernatant of wells (keratinocyte/melanocyte side), 10 days, 10^−5 M noradrenalin alone or with 0.03% Calmiskin) | amount of melanin, without noradrenalin ([1]; 10 days, no noradrenalin, CGRP8-37 10^−6 M, Calmiskin 0.03%, mean of 4 independent experiments) | change in amount of melanin in the presence of noradrenalin ([1]; versus 10^−5 M noradrenalin alone, Calmiskin 0.03%, CGRP8-37 10^−6 M, 10 days) [%]
1 | NC[C@H](O)c1ccc(O)c(O)c1 [noradrenalin] | +15% | 25.77 ± 0.72 μg of melanin/ml | increase in melanin synthesis | increased | very substantial | 493.86 ± 11.57 μg of CGRP/ml of medium | 170.48 ± 19.47 μg of CGRP/ml of medium |  | 
2 | CGRP8-37: reference CGRP receptor antagonist (VTHRLAGLLSRSGGVVKNNFVPTNVGSKAF; ends and bridges not checked; UniProt P06881 90-119, looked up, fragment) |  | 21.35 ± 0.91 μg of melanin/ml | considerable decrease in melanin synthesis |  |  |  |  | 19.33 ± 0.48 μg of melanin/ml | −17.2
